The results in this text go back to ChEMBL document CHEMBL1671629, “Penetration of chlorhexidine into human skin” (Antimicrob Agents Chemother, 2008).

Holding throughout (format): ADME, tissue-based
In series [1] the test system is Zone of skin. Nature of the series: Drug permeation in deeper <300 micrometer sections of human skin using Franz-cell skin model assessed as compound penetration per mg tissue exposed to 2% wt/vol of compound administered topically measured after 24 hrs exposure by HPLC.
Series [2] has as its system Zone of skin. Nature of the series: Drug permeation in deeper <300 micrometer sections of human skin using Franz-cell skin model assessed as compound penetration per mg tissue exposed to 2% wt/vol of compound administered topically measured after 30 mins exposure by HPLC. The note with it: 0.5 h.
Series [3] concerns Zone of skin. Kind of series: Drug permeation in top 100 micrometer sections of human skin using Franz-cell skin model assessed as compound penetration per mg tissue exposed to 2% wt/vol of compound administered topically measured after 30 mins exposure by HPLC. The note with it: 0.5 h.
Series [4] relates to Zone of skin. Kind of series: Drug permeation in top 100 micrometer sections of human skin using Franz-cell skin model assessed as compound penetration per mg tissue exposed to 2% wt/vol of compound administered topically measured after 24 hrs exposure by HPLC.
Series [5] deals with Zone of skin. Nature of the series: Drug permeation in top 100 micrometer sections of human skin using Franz-cell skin model assessed as compound penetration per mg tissue exposed to 2% wt/vol of compound administered topically measured after 2 mins exposure by HPLC.
Series [6] relates to Zone of skin. Nature of the series: Drug permeation in deeper <300 micrometer sections of human skin using Franz-cell skin model assessed as compound penetration per mg tissue exposed to 2% wt/vol of compound administered topically measured after 2 mins exposure by HPLC.

Consider `N=C(NCCCCCCNC(=N)NC(=N)Nc1ccc(Cl)cc1)NC(=N)Nc1ccc(Cl)cc1.O=C(O)[C@H](O)[C@@H](O)[C@H](O)[C@H](O)CO`, for which the Drug uptake with Zone of skin [1] is under 1 µg; in the series with Zone of skin [2], under 0.002 µg; with Zone of skin [6], under 0.002 µg. Further, the tissue concentration in the series with Zone of skin [3] was 0.077 µg/mg; in the series with Zone of skin [4] it was 7.88 µg/mg; in the series with Zone of skin [5], 0.157 µg/mg.
